Source: patent US10995091B2 (Proximagen, LLC, priority 2010, dated 2021)

target: T1, Human CXCR4 transfected HEK293 cells (Homo sapiens, UniProt P61073); assay: CXCR4 functional calcium assay (calcium flux FLIPR, antagonism of SDF1 response); type: cell-based; settings: CXCR4 functional activity, antagonism of SDF1 (EC50 concentration), read-out: CXCR4 fKi
T1 construct: expressed in transfected cells; host or cells: HEK293
Description: The functional activity of test compounds was routinely tested by measuring the ability of compounds to antagonize CXCR4 activity in a dose dependent manner, using a calcium flux Fluorescent Imaging Plate Reader FLIPR assay.
Human CXCR4 transfected HEK293 cells were cultured in Dulbecco's modified Eagles medium containing 4.5 g/L glucose, L-glutamine, pyruvate, 50 µg/mL Geneticin and 250 µg/mL hygromycin B and maintained at 37° C. in a humidified, 5% CO2 controlled atmosphere. Subcultivations were performed every 2-3 d.
At confluence the cells were lifted using Ca^2+ and Mg^2+ free PBS/0.02% (w/v) EDTA, spun at 1000 rpm for 3 min and resuspended at 2.5×10^5 cells/mL. Cells were plated into a 384 well, poly-d-lysine coated, black with clear bottomed plate (Becton Dickinson) at 7500 cells/well. The plates were incubated overnight at 37° C. under 5% CO2. On the day of the experiment the cells were washed with incubation Buffer (HBSS containing 2.5 mM probenecid, 0.1% w/v BSA and 10 mM HEPES, pH 7.4 at 37° C.). After washing, the cells were loaded with Fluo-4 AM dye (Molecular probes) at 2 µM containing 0.48 µg/mL pluronic acid for 60 min at 37° C. under 5% CO2. After thorough washing with incubation buffer the cells were preincubated for 10 min at 37° C. before use.
A combined agonist/antagonist protocol was used to measure changes in intracellular calcium concentration. Compound (antagonist) was added to the cell plate using a Fluorometric Imaging Plate Reader (FLIPR) (Molecular Devices, Sunnyvale, Calif., USA). Basal fluorescence was recorded every second for 10 seconds prior to compound addition (10 μl) and fluorescence recorded every second for 1 min then every 6 seconds for a further 1 min. SDF1[…] (EC50 concentration) was then added using the FLIPR and fluorescence recorded as described above. Curve-fitting and parameter estimation were carried out using GraphPad Prism 4.0 (GraphPad Software Inc., San Diego, Calif.).

T1 sequence (P61073 whole entry): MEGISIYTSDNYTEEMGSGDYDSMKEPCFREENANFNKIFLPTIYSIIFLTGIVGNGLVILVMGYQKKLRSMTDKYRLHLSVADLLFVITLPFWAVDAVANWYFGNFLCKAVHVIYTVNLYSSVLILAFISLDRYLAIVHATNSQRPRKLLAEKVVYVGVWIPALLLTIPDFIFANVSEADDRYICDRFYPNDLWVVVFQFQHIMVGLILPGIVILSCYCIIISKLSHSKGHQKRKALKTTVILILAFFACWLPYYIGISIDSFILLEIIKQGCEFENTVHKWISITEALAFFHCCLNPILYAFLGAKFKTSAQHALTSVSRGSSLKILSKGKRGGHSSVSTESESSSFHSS

Row | Ki [nM] | Compound
1 | 100 to 500 | CC(C)N1CCCC(N2CCN(c3cccc(C(=O)Nc4ccncc4)n3)CC2)CC1 (stereo not shown) [Example 242, 6-{4-[1-(Propan-2-yl)azepan-4-yl]piperazin-1-yl}-N-(pyridin-4-yl)pyridine-2-carboxamide]
2 | 100 to 500 | O=C(NCC(F)(F)F)c1cccc(N2CCCN(C3CCN(Cc4ccccc4Cl)CC3)CC2)n1 [Example 48, 6-(4-{1-[(2-Chlorophenyl)methyl]piperidin-4-yl}-1,4-diazepan-1-yl)-N-(2,2,2-trifluoroethyl)pyridine-2-carboxamide]
3 | 20 to 100 | Cc1ccccc1CN1CCCC(N2CCN(c3cccc(C(=O)Nc4ccncc4)n3)CC2)CC1 (stereo not shown) [Example 240, 6-(4-{1-[(2-Methylphenyl)methyl]azepan-4-yl}piperazin-1-yl)-N-(pyridin-4-yl)pyridine-2-carboxamide]
4 | 20 to 100 | O=C(Nc1ccncc1)c1cccc(N2CCN(C3CCCN(Cc4ccc(F)cc4Cl)CC3)CC2)n1 (stereo not shown) [Example 241, 6-(4-{1-[(2-Chloro-4-fluorophenyl)methyl]azepan-4-yl}piperazin-1-yl)-N-(pyridin-4-yl)pyridine-2-carboxamide]
5 | < 20 | [2H]C1([2H])CCN(C2CCN([C@@H](C)CC)CC2)CCN1c1cccc(C(=O)Nc2ccncc2)n1 [Example 177, 6-(4-{1-[(2S)-Butan-2-yl]piperidin-4-yl}-7,7-dihydrogenio-1,4-diazepan-1-yl)-N-(pyridine-4-yl)pyridine-2-carboxamide]
6 | < 20 | CC(C)N1CCC(N2CCCN(c3cccc(C(=O)NCc4ccncc4)n3)CC2)CC1 [Example 36, 6-{4-[1-(Propan-2-yl)piperidin-4-yl]-1,4-diazepan-1-yl}-N-(pyridin-4-ylmethyl)pyridine-2-carboxamide]
7 | < 20 | C[C@@H](N1CCC(N2CCCN(c3cccc(C(=O)Nc4ccncc4)n3)CC2)CC1)C(F)(F)F [Example 81, N-(Pyridin-4-yl)-6-(4-{1-[(2R)-1,1,1-trifluoropropan-2-yl]piperidin-4-yl}-1,4-diazepan-1-yl)pyridine-2-carboxamide]
8 | 20 to 100 | [2H]C1([2H])CCN(C2CCN(C(C)C)CC2)CCN1c1cccc(C(=O)NCC2CC2)n1 [Example 181, N-(Cyclopropylmethyl)-6-{7,7-dihydrogenio-4-[1-(propan-2-yl)piperidin-4-yl]-1,4-diazepan-1-yl}pyridine-2-carboxamide]
9 | 20 to 100 | CC(C)N1CCC(N2CCCN(c3cccc(C(=O)Nc4cccnc4)n3)CC2)CC1 [Example 29, 6-{4-[1-(Propan-2-yl)piperidin-4-yl]-1,4-diazepan-1-yl}-N-(pyridin-3-yl)pyridine-2-carboxamide]
10 | < 20 | [2H]C1([2H])CCN(c2cccc(C(=O)Nc3ccncc3)n2)CCN1C1CCN(C(C)C)CC1 [Example 186, 6-{5,5-Dihydrogenio-4-[1-(propan-2-yl)piperidin-4-yl]-1,4-diazepan-1-yl}-N-(pyridin-4-yl)pyridine-2-carboxamide]
11 | 500 to 1000 | O=C(Nc1ccncc1)c1cccc(N2CCCN(C3CCC(N4CCCC4C(F)(F)F)CC3)CC2)n1 (stereo not shown) [Example 257, N-(Pyridin-4-yl)-6-(4-{4-[2-(trifluoromethyl)pyrrolidin-1-yl]cyclohexyl}-1,4-diazepan-1-yl)pyridine-2-carboxamide]
12 | < 20 | CC[C@@H](C)N1CCC(N2CCCN(c3cccc(C(=O)Nc4ccncc4)n3)CC2)CC1 [Example 78, 6-(4-{1-[(2R)-Butan-2-yl]piperidin-4-yl}-1,4-diazepan-1-yl)-N-(pyridine-4-yl)pyridine-2-carboxamide]
13 | 20 to 100 | [2H]C1([2H])CCN(C2CCN([C@@H](C)C(F)(F)F)CC2)CCN1c1cccc(C(=O)Nc2ccncc2)n1 [Example 178, 6-(7,7-Dihydrogenio-4-{1-[(2S)-1,1,1-trifluoropropan-2-yl]piperidin-4-yl}-1,4-diazepan-1-yl)-N-(pyridine-4-yl)pyridine-2-carboxamide]

More lines, now with the values behind:

Row | Compound | Ki [nM]
14 | CC(C)N1CCC(N2CCCN(c3cccc(-c4nc(C5CC5)no4)n3)CC2)CC1 [Example 169, 1-[6-(3-Cyclopropyl-1,2,4-oxadiazol-5-yl)pyridin-2-yl]-4-[1-(propan-2-yl)piperidin-4-yl]-1,4-diazepane] | 500 to 1000
15 | c1cc(NCCNCC2CCN(C3CCCC3)C2)nc(-c2ncc(C3CC3)[nH]2)c1 (stereo not shown) [Example 229, [(1-Cyclopentylpyrrolidin-3-yl)methyl](2-{[6-(5-cyclopropyl-1H-imidazol-2-yl)pyridin-2-yl]amino}ethyl)amine] | 100 to 500
16 | Cc1ccc(N2CCCN(C3CCN(Cc4ccccc4Cl)CC3)CC2)nc1 [Example 263, 1-{1-[(2-Chlorophenyl)methyl]piperidin-4-yl}-4-(5-methylpyridin-2-yl)-1,4-diazepane] | 100 to 500
17 | CC(C)N1CCC(N2CC3CCC2CN(c2cccc(C(=O)Nc4ccncc4)n2)C3)C(F)C1 (stereo not shown) [Example 198] | 100 to 500
18 | Cc1nc(-c2cccc(N3CCCN(C4CCN(C(C)C)CC4F)CC3)n2)[nH]c1C1CC1 (stereo not shown) [Example 213, 1-[6-(4-Cyclopropyl-5-methyl-1H-imidazol-2-yl)pyridin-2-yl]-4-[3-fluoro-1-(propan-2-yl)piperidin-4-yl]-1,4-diazepane] | 20 to 100
19 | CC(C)N1CCC(N2CCCN(c3cccc(C(=O)NCc4cnco4)n3)CC2)CC1 [Example 44, N-(1,3-Oxazol-5-ylmethyl)-6-{4-[1-(propan-2-yl)piperidin-4-yl]-1,4-diazepan-1-yl}pyridine-2-carboxamide] | 20 to 100
20 | CC(C)N1CCC(N2CCCN(c3cccc(C(=O)NCCO)n3)CC2)CC1 [Example 12, N-(2-Hydroxyethyl)-6-{4-[1-(propan-2-yl)piperidin-4-yl]-1,4-diazepan-1-yl}pyridine-2-carboxamide] | 100 to 500
21 | CC(C)N1CCC(N2CCCN(c3cccc(-c4nc(-c5ccccc5)no4)n3)CC2)CC1 [Example 170, 1-[6-(3-Phenyl-1,2,4-oxadiazol-5-yl)pyridin-2-yl]-4-[1-(propan-2-yl)piperidin-4-yl]-1,4-diazepane] | 100 to 500
22 | CC(C)N1CCCC(N(C)CCN(C)c2cccc(C(=O)Nc3ccncc3)n2)CC1 (stereo not shown) [Example 238, 6-[Methyl(2-{methyl[1-(propan-2-yl)azepan-4-yl]amino}ethyl)amino]-N-(pyridin-4-yl)pyridine-2-carboxamide] | 100 to 500
23 | CC(C)N1CCC(N2CCCN(c3cccc(-c4ncc(-c5ccccc5)[nH]4)n3)CC2)CC1 [Example 114, 1-[6-(4-Phenyl-1H-imidazol-2-yl)pyridine-2-yl]-4-[1-(propan-2-yl)piperidin-4-yl]-1,4-diazepane] | 100 to 500
24 | CC(C)N1CCC(N2CCCN(c3cccc(-c4c[nH]c5ncccc45)n3)CC2)CC1 [Example 101, 1-[1-(Propan-2-yl)piperidin-4-yl]-4-(6-{1H-pyrrolo[2,3-b]pyridine-3-yl}pyridine-2-yl)-1,4-diazepane] | 100 to 500
25 | CC(C)N1CCC(N2CCCN(c3cccc(C(=O)NCc4cscn4)n3)CC2)CC1 [Example 42, 6-{4-[1-(Propan-2-yl)piperidin-4-yl]-1,4-diazepan-1-yl}-N-(1,3-thiazol-4-ylmethyl)pyridine-2-carboxamide] | 20 to 100
26 | O=C(NCC1CC1)c1cccc(N2CCCN(CCCN3CCC(F)(F)C3)CC2)n1 [Example 253, N-(Cyclopropylmethyl)-6-{4-[3-(3,3-difluoropyrrolidin-1-yl)propyl]-1,4-diazepan-1-yl}pyridine-2-carboxamide] | 500 to 1000
27 | CC(C)N1CCC(N2CCCN(c3cccc(C(=O)NCCn4ccnc4)n3)CC2)CC1 [Example 45, N-[2-(1H-Imidazol-1-yl)ethyl]-6-{4-[1-(propan-2-yl)piperidin-4-yl]-1,4-diazepan-1-yl}pyridine-2-carboxamide] | 20 to 100
28 | O=C(NCC1CC1)c1cccc(N2CCCN(C3CCN([C@H]4CCc5ccccc54)CC3)CC2)n1 [Example 77, N-(Cyclopropylmethyl)-6-(4-{1-[(1S)-2,3-dihydro-1H-inden-1-yl]piperidin-4-yl}-1,4-diazepan-1-yl)pyridine-2-carboxamide] | 20 to 100
29 | O=C(NC[C@H]1CCCO1)c1cccc(N2CCCN(C3CCN(Cc4ccccc4Cl)CC3)CC2)n1 [Example 51, 6-(4-{1-[(2-Chlorophenyl)methyl]piperidin-4-yl}-1,4-diazepan-1-yl)-N-[(2R)-oxolan-2-ylmethyl]pyridine-2-carboxamide] | 20 to 100
30 | CC(C)N1CCC(N2CCCN(c3cccc(-c4nnc(C5CC5)o4)n3)CC2)CC1 [Example 172, 1-[6-(5-Cyclopropyl-1,3,4-oxadiazol-2-yl)pyridin-2-yl]-4-[1-(propan-2-yl)piperidin-4-yl]-1,4-diazepane] | 100 to 500
31 | CC(C)c1cnc(-c2cccc(N3CCCN(C4CCN(C(C)C)CC4)CC3)n2)[nH]1 [Example 110, 1-{6-[4-(Propan-2-yl)-1H-imidazol-2-yl]pyridine-2-yl}-4-[1-(propan-2-yl)piperidin-4-yl]-1,4-diazepane] | 20 to 100
